This note sets out measurements from US9232796B2, “Herbicidal compositions comprising 4-amino-3-chloro-5-fluoro-6-(4-chloro-2-fluoro-3-methoxyphenyl) pyridine-2-carboxylic acid or a derivative thereof and acetyl-CoA carboxylase (ACCase) inhibitors” (DOW AGROSCIENCES LLC, priority 2012, dated 2016).

For one test, the system named is ECHOR. In words: Example VI in-water applied ternary mixtures, greenhouse, transplanted paddy rice weeds. The class given is in vivo, Echinochloa oryzoides (Ard.) Fritsch. Here is the method: (§1) Weed seeds or nutlets of the desired test plant species were planted in puddled soil (mud) prepared by mixing a shredded, non-sterilized mineral soil (50.5 percent silt, 25.5 percent clay, and 24 percent sand, with a pH of about 7.6 and an organic matter content of about 2.9 percent) and water at a 1:1 volumetric ratio. The prepared mud was dispensed in 365 mL aliquots into 16-ounce (oz.) non-perforated plastic pots with a surface area of 86.59 square centimeters (cm^2) leaving a headspace of 3 centimeters (cm) in each pot. Mud was allowed to dry overnight prior to planting or transplanting. Rice seeds were planted in Sun Gro MetroMix® 306 planting mixture, which typically has a pH of 6.0 to 6.8 and an organic matter content of about 30 percent, in plastic plug trays. Seedlings at the second or third leaf stage of growth were transplanted into 860 mL of mud contained in 32-oz. non-perforated plastic pots with a surface area of 86.59 cm^2 4 days prior to herbicide application. The paddy was created by filling the headspace of the pots with 2.5 to 3 cm of water. When required to ensure good germination and healthy plants, a fungicide treatment and/or other chemical or physical treatment was applied. The plants were grown for 4-22 days in a greenhouse with an approximate 14 hr. photoperiod which was maintained at about 29° C. during the day and 26° C. during the night. Nutrients were added as Osmocote® (19:6:12, N:P:K+minor nutrients) at 2 g per 16-oz. pot and 4 g per 32-oz. pot. Water was added on a regular basis to maintain the paddy flood, and supplemental lighting was provided with overhead metal halide 1000-Watt lamps as necessary. The plants were employed for testing when they reached the first through fourth true leaf stage.
(§2) Treatments consisted of the benzyl ester of 4-amino-3-chloro-5-fluoro-6-(4-chloro-2-fluoro-3-methoxy-phenyl)pyridine-2-carboxylic acid (Compound A), formulated as an SC (suspension concentrate), an ACCase inhibitor herbicide, and a third herbicidal component, each applied alone and in ternary combination. Forms of compound A were applied on an acid equivalent basis.
(§3) The ACCase inhibitor component was applied on an active ingredient basis and included cyhalofop-R-butyl formulated as Clincher® G and metamifop formulated as Metamifop EC. Other herbicidal components were applied on an active ingredient or acid equivalent basis depending on the compound and included penoxsulam formulated as Grasp® SC, bentazon sodium formulated as Basagran®, triclopyr […] (TEA) salt formulated as Grandstand® R, benzobicyclon formulated as Benzobicyclon, benfuresate formulated as Full Slot® WG, pyraclonil formulated as Pyraclon® Flowable, mefenacet (technical grade material), and pretilachlor (technical grade material).
(§4) Treatment requirements for each compound or herbicidal component were calculated based upon the rates being tested, the concentration of active ingredient or acid equivalent in the formulation, an application volume of 1 mL per component per pot, and an application area of 86.59 cm^2 per pot.
(§5) For formulated compounds, a measured amount was placed in an individual 100 or 200 mL glass vial and was dissolved in a volume of 1.25% (v/v) Agri-Dex® crop oil concentrate to obtain application solutions.
(§6) For technical grade compounds, a weighed amount was placed in an individual 100 to 200 mL glass vial and was dissolved in a volume of acetone to obtain concentrated stock solutions.
(§7) Applications were made by injecting with a pipetter appropriate amounts of the application solutions, into the aqueous layer of the paddy. Control plants were treated in the same manner with the solvent blank. Applications were made so that all treated plant material received the same concentrations of acetone and crop oil concentrate.
(§8) The treated plants and control plants were placed in a greenhouse as described above and water was added as needed to maintain a paddy flood. […]

The next test has as its system FIMMI. The test is described as above. The class given is in vivo, Fimbristylis miliacea (L.) Vahl. The following applies: Table 67, 50 gai/ha, 24 DAA. Here is the method:
as §1, §2, §3, §4, §5, §6, §7, §8

The next test relates to ECHCG. The description is as above. Particulars: Table 67, 100 gai/ha, 21 DAA. The class given is in vivo, Echinochloa crus-galli (L.) Beauv. On the procedure:
as §1, §2, §3, §4, §5, §6, §7, §8

The test system of test [1] is SCPJU. In words: Example II in-water applied, greenhouse, transplanted paddy rice weeds. The following applies: in-water. The class given is in vivo, Schoenoplectus juncoides (Roxb.) Palla. On the procedure:
as §1, with “When required to ensure good germination and healthy plants, a fungicide treatment and/or other chemical or physical treatment was applied.” left out
(§9) Treatments consisted of the acid or esters of 4-amino-3-chloro-5-fluoro-6-(4-chloro-2-fluoro-3-methoxy-phenyl)pyridine-2-carboxylic acid (compound A) each formulated as an SC (suspension concentrate) and various herbicidal components alone and in combination.
as §5
(§10) Applications were made by injecting with a pipetter appropriate amounts of the application solutions, individually and sequentially, into the aqueous layer of the paddy. Control plants were treated in the same manner with the solvent blank. Applications were made so that all treated plant material received the same concentrations of acetone and crop oil concentrate.
(§11) The treated plants and control plants were placed in a greenhouse as described above and water was added as needed to maintain a paddy flood. After approximately 3 weeks the condition of the test plants as compared with that of the untreated plants was determined visually and scored on a scale of 0 to 100 percent where 0 corresponds to no injury or growth inhibition and 100 corresponds to complete kill.
(§12) Colby's equation was used to determine the herbicidal effects expected from the mixtures (Colby, S. R. 1967. Calculation of the synergistic and antagonistic response of herbicide combinations. Weeds 15:20-22.).
(§13) The following equation was used to calculate the expected activity of mixtures containing two active ingredients, A and B: Expected=A+B−(A×B/100)

The test system of a further test is IPOHE. Kind of test: Example I postemergence foliar-applied, greenhouse, direct seeded rice weeds. The test is classed as in vivo, Ipomoea hederacea Jacq. From the text: (§14) Seeds or nutlets of the desired test plant species were planted in a soil matrix prepared by mixing a loam or sandy loam soil (e.g., 28.6 percent silt, 18.8 percent clay, and 52.6 percent sand, with a pH of about 5.8 and an organic matter content of about 1.8 percent) and calcareous grit in an 80 to 20 ratio. The soil matrix was contained in plastic pots with a volume of 1 quart and a surface area of 83.6 square centimeters (cm^2). When required to ensure good germination and healthy plants, a fungicide treatment and/or other chemical or physical treatment was applied. The plants were grown for 8-22 days in a greenhouse with an approximate 14 hr. photoperiod which was maintained at about 29° C. during the day and 26° C. during the night. Nutrients (Peters Excel® 15-5-15 5-Ca 2-Mg and iron chelate) were applied in the irrigation solution as needed and water was added on a regular basis. Supplemental lighting was provided with overhead metal halide 1000-Watt lamps as necessary. The plants were employed for testing when they reached the first through fourth true leaf stage.
(§15) Treatments consisted of the acid or esters of 4-amino-3-chloro-5-fluoro-6-(4-chloro-2-fluoro-3-methoxy-phenyl)pyridine-2-carboxylic acid (Compound A), each formulated as an SC (suspension concentrate), and various herbicidal components alone and in combination.
(§16) Other herbicidal components were applied on an acid equivalent (ae) or active ingredient (ai) basis and included acetyl coA carboxylase (ACCase)-inhibiting herbicides (cyclohexanedione and aryloxyphenoxypropionate chemical classes) cyhalofop-butyl formulated as Clincher® SF (285 gr ai/L EC), diclofop-methyl formulated as Hoelon® 3EC, fenoxaprop-p-ethyl+isoxadifen-ethyl formulated as RiceStar® HT (0.58 lb./gal EC), fenoxaprop-p-ethyl+mefenpyr diethyl formulated as Puma® IEC, metamifop formulated as Metamifop EC, haloxyfop-methyl formulated as Gallant Super®, fluazifop-p-butyl formulated as Fusilade® DX, quizalofop-p-ethyl formulated as Assure® II, profoxydim formulated as Aura® 20EC, clethodim applied as Intensity®, sethoxydim formulated as Poast®, and tralkoxydim formulated as Achieve®.
(§17) Treatment requirements were calculated based upon the rates being tested, the concentration of active ingredient or acid equivalent in the formulation, and a 12 mL application volume at a rate of 187 L/ha.
(§18) For treatments comprised of formulated compounds, measured amounts of compounds were placed individually in 25 mL glass vials and diluted in a volume of 1.25% (v/v) Agri-Dex® crop oil concentrated to obtain 12× stock solutions. […] Application solutions were prepared by adding an appropriate amount of each stock solution (e.g., 1 mL) and diluted to the appropriate final concentrations with the addition of 10 mL of an aqueous mixture of 1.25% (v/v) crop oil concentrate so that the final spray solutions contained 1.25+/−0.05% (v/v) crop oil concentrate.
(§19) All stock solutions and applications solutions were visually inspected for compound compatibility prior to application. Spray solutions were applied to the plant material with an overhead Mandel track sprayer equipped with a 8002E nozzles calibrated to deliver 187 L/ha over an application area of 0.503 m^2 at a spray height of 18 to 20 inches (46 to 50 cm) above average plant canopy height. Control plants were sprayed in the same manner with the solvent blank.
(§20) The treated plants and control plants were placed in a greenhouse as described above and watered by sub-irrigation to prevent wash-off of the test compounds. After approximately 3 weeks, the condition of the test plants as compared with that of the untreated plants was determined visually and scored on a scale of 0 to 100 percent where 0 corresponds to no injury or growth inhibition and 100 corresponds to complete kill. […]

The next test deals with BRAPP. The test is described as above. The class given is in vivo, Brachiaria platyphylla (Griseb.) Nash.
From the text: as §14, §15, §16, §17, §18, §19, §20

The subject of the next test is CYPRO. In words: Example II in-water applied, greenhouse, transplanted paddy rice weeds. The test is classed as in vivo, Cyperus rotundus L. Here is the method:
as §1, with “When required to ensure good germination and healthy plants, a fungicide treatment and/or other chemical or physical treatment was applied.” left out
as §9, §5, §10, §11, §12, §13

The test system of test [2] is SCPJU. Kind of test: Example I postemergence foliar-applied, greenhouse, direct seeded rice weeds. The test is classed as in vivo, Schoenoplectus juncoides (Roxb.) Palla.
From the text: as §14, §15, §16, §17, §18, §19, §20

For another test, the system named is ECHCO. The description is as above. The test is classed as in vivo, Echinochloa colona (L.) Link.
From the text: as §14, §15, §16, §17, §18, §19, §20

As to `CS(=O)(=O)c1ccc(C(=O)C2=C(Sc3ccccc3)C3CCC(C3)C2=O)c(Cl)c1` (stereo not shown) [Benzobicylon], the “Visual Weed Control (%) - 24 DAA ECHOR Obs” value in the test with ECHOR (Table 67, 25 gai/ha) is 10%; with ECHOR (Table 67, 50 gai/ha) it was 10%. Besides, the “Visual Weed Control (%) - 24 DAA FIMMI Obs” value with FIMMI is 68%. Further, the “Visual Weed Control (%) - 21 DAA ECHCG Obs” value in the test with ECHCG was 20%.
For `COC(=O)[C@@H](C)Oc1ccc(Oc2ncc(C(F)(F)F)cc2Cl)cc1` [Haloxyfop-methyl, methyl(2R)-2-[4-[[3-chloro-5-(trifluoromethyl)-2-pyridinyl]oxy]phenoxy]propanoate], the “Visual Weed Control (%) - 20 DAA SCPJU Obs” value in the test on SCPJU [1] (13.5 gai/ha), in the test with SCPJU [1] (27 gai/ha), in the test with SCPJU [2] (6.75 gai/ha), in the test on SCPJU [2] (13.5 gai/ha) and in the test on SCPJU [2] (27 gai/ha) was 0% each time. The “Visual Weed Control (%) - 20 DAA IPOHE Obs” value in the test with IPOHE (6.75 gai/ha), with IPOHE (13.5 gai/ha) and with IPOHE (27 gai/ha) was 0% throughout. For the same compound, the “Visual Weed Control (%) - 20 DAA BRAPP Obs” value in the test on BRAPP (6.75 gai/ha) and in the test on BRAPP (13.5 gai/ha) was 0% each time. In addition, the “Visual Weed Control (%) - 20 DAA CYPRO Obs” value with CYPRO (13.5 gai/ha) and with CYPRO (27 gai/ha) was 0% throughout. Moreover, the “Visual Weed Control (%) - 20 DAA ECHCO Obs” value in the test on ECHCO (6.75 gai/ha), in the test with ECHCO (13.5 gai/ha) and in the test on ECHCO (27 gai/ha) was 0% each time.
